Test results published in ChEMBL document CHEMBL5523740, “Discovery of Potent and Selective c-Met Degraders for Hepatocellular Carcinoma Treatment” (J Med Chem, 2024).
Calls of active or inactive are those of the source. The rule behind the calls is not given here.

What was measured:
[1] = molecular target: T1, Hepatocyte growth factor receptor (Homo sapiens, UniProt P08581); test: Induction of c-Met degradation in human MHCC97H cells at 500 nM after 3 to 24 hrs by Western blotting analysis; assay type: cell-based; details: time 3-24 hrs
T1 sequence (P08581 whole entry): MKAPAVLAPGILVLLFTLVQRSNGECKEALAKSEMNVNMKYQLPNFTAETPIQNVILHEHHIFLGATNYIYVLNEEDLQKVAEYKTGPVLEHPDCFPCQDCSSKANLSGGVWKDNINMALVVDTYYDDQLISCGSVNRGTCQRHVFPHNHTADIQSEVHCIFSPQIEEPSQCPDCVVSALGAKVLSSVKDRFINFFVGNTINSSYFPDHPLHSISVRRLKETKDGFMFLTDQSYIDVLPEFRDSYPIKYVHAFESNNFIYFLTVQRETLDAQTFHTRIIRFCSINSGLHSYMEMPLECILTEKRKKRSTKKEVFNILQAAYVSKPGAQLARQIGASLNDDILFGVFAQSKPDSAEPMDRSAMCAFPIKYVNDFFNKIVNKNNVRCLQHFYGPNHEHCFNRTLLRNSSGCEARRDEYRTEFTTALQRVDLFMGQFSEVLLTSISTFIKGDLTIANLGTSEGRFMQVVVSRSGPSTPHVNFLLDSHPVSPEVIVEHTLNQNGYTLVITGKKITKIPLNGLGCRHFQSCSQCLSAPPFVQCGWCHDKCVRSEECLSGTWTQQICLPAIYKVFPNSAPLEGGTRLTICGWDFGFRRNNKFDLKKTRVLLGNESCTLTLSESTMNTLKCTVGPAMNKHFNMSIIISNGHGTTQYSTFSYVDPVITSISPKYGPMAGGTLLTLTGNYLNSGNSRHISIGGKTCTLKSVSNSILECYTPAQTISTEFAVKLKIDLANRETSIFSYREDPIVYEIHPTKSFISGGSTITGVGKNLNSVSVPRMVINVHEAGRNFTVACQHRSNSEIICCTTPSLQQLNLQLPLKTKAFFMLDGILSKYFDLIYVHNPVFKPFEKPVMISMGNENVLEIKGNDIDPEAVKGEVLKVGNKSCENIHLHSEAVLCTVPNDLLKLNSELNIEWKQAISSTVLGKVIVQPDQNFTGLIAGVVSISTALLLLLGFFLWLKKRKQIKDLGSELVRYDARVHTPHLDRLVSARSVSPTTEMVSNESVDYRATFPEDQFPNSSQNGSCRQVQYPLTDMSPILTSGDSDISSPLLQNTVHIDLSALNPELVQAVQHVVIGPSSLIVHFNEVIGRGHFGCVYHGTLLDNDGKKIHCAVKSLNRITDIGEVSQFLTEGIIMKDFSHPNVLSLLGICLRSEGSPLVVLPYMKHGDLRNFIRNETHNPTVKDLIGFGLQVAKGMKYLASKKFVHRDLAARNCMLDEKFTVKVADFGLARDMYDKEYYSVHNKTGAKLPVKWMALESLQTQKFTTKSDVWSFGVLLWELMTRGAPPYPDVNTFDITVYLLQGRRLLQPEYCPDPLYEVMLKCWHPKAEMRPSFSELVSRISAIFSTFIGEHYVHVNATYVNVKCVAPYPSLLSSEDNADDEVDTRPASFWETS

[2] = Tmax in Sprague-Dawley rat at 1 mg/kg, iv by LC-MS/MS method; assay type: ADME, organism-based; details: in vivo
[3] = Half-life in Sprague-Dawley rat at 1 mg/kg, iv by LC-MS/MS method; assay type: ADME, organism-based; details: in vivo
MHCC97H [4] = test: Inhibition of cell growth in human MHCC97H cells incubated for 5 days by microplate reader assay; assay type: functional, cell-based; details: time 5.0 day
[5] = Toxicity in BALB/c mouse xenografted with human MHCC97H cells assessed as kidney lesions at 20 mg/kg, po qd for 22 days and measured every 2 days by H and E staining based assay; assay type: organism-based; details: in vivo, 528 h, time 22 day
[6] = Toxicity in BALB/c mouse xenografted with human MHCC97H cells assessed as lung lesions at 20 mg/kg, po qd for 22 days and measured every 2 days by H and E staining based assay; assay type: organism-based; details: in vivo, 528 h, time 22 day
MHCC97H [7] = test: Induction of apoptosis in human MHCC97H cells assessed as necrotic cells incubated for 24 hrs by Annexin-V-FITC/PI staining based flow cytometry analysis; assay type: functional, cell-based; details: dose 3-100 nM
MHCC97H [8] = test: Induction of cell cycle arrest in human MHCC97H cells assessed as accumulation of cells at G1 phase at 3 nM incubated for 24 hrs by PI staining based flow cytometry analysis (reference value: 70.4%); assay type: functional
MHCC97H [9] = test: Inhibition of colony formation in human MHCC97H cells at 3 to 100 nM incubated for 2 weeks by crystal violet staining based assay; assay type: functional, cell-based; details: dose 3-100 nM
[10] = molecular target: T1, Hepatocyte growth factor receptor; test: Induction of c-Met degradation in human MHCC97H cells at 500 nM by Western blotting analysis; assay type: cell-based; details: time 3-48 hrs, TDE = time-dependent effect
[11] = Toxicity in BALB/c mouse xenografted with human MHCC97H cells assessed as lung lesions at 10 mg/kg, ip qd for 22 days and measured every 2 days by H and E staining based assay; assay type: organism-based; details: in vivo, 528 h, time 22 day
[12] = molecular target: T1, Hepatocyte growth factor receptor; test: Induction of c-Met degradation in human MHCC97H cells at 500 nM after 24 hrs in presence of MG-132 by Western blotting analysis; assay type: cell-based
Mus musculus [13] = test: Downregulation of phosphorylated c-Met level in BALB/c mouse tumor xenografted with human MHCC97H cells at 20 mg/kg, po qd for 22 days and measured every 2 days by Western blotting analysis; assay type: functional, organism-based; details: time 22.0 day
MHCC97H [14] = test: Induction of apoptosis in human MHCC97H cells assessed as necrotic cells at 3 nM incubated for 24 hrs by Annexin-V-FITC/PI staining based flow cytometry analysis (reference value: 1.77%); assay type: functional
[15] = Toxicity in BALB/c mouse xenografted with human MHCC97H cells assessed as liver lesions at 20 mg/kg, po qd for 22 days and measured every 2 days by H and E staining based assay; assay type: organism-based; details: in vivo, 528 h, time 22 day
[16] = AUC(0 to infinity) in Sprague-Dawley rat at 10 mg/kg, po by LC-MS/MS method; assay type: ADME, organism-based; details: in vivo
[17] = molecular target: T1, Hepatocyte growth factor receptor; test: Induction of c-Met degradation in human MHCC97H cells assessed as downregulation of c-Met protein level at 500 nM after 24 hrs by Western blotting analysis; assay type: cell-based
[18] = molecular target: T1, Hepatocyte growth factor receptor; test: Induction of c-Met degradation in human Huh-7 cells incubated for 24 hrs by Western blotting analysis; assay type: cell-based; details: dose 63-100 nM
[19] = Cmax in Sprague-Dawley rat at 10 mg/kg, po by LC-MS/MS method; assay type: ADME, organism-based; details: in vivo
[20] = molecular target: T1, Hepatocyte growth factor receptor; test: Induction of c-Met degradation in human HepG2 cells incubated for 24 hrs by Western blotting analysis; assay type: cell-based; details: dose 63-100 nM
MHCC97H [21] = test: Induction of apoptosis in human MHCC97H cells assessed as early apoptotic cells at 10 nM incubated for 24 hrs by Annexin-V-FITC/PI staining based flow cytometry analysis (reference value: 7.70%); assay type: functional
BaF3 [22] = test: Antiproliferative activity against mouse BaF3 cells harboring TPR-MET Y1230H mutant fusion protein incubated for 72 hrs by CellTiter-Glo reagent based assay; assay type: functional, cell-based; details: BaF3, 72 h
MHCC97H [23] = test: Induction of apoptosis in human MHCC97H cells assessed as early apoptotic cells at 3 nM incubated for 24 hrs by Annexin-V-FITC/PI staining based flow cytometry analysis (reference value: 7.70%); assay type: functional
Mus musculus [24] = test: Downregulation of c-Met protein level in BALB/c mouse tumor xenografted with human MHCC97H cells at 10 mg/kg, ip qd for 22 days and measured every 2 days by Western blotting analysis; assay type: functional, organism-based; details: time 22.0 day
[25] = molecular target: T1, Hepatocyte growth factor receptor; test: Induction of c-Met degradation in human MHCC97H cells incubated for 24 hrs by Western blotting analysis; assay type: cell-based
MHCC97H [26] = test: Induction of apoptosis in human MHCC97H cells assessed as viable cells at 10 nM incubated for 24 hrs by Annexin-V-FITC/PI staining based flow cytometry analysis (reference value: 86.3%); assay type: functional; details: read-out: Activity
Mus musculus [27] = test: Downregulation of phosphorylated c-Met level in BALB/c mouse tumor xenografted with human MHCC97H cells at 10 mg/kg, ip qd for 22 days and measured every 2 days by Western blotting analysis; assay type: functional, organism-based; details: time 22.0 day
[28] = Toxicity in BALB/c mouse xenografted with human MHCC97H cells assessed as reduction in body weight at 20 mg/kg, po qd for 22 days and measured every 2 days; assay type: organism-based; details: in vivo, 528 h, time 22 day
[29] = Toxicity in BALB/c mouse xenografted with human MHCC97H cells assessed as liver lesions at 10 mg/kg, ip qd for 22 days and measured every 2 days by H and E staining based assay; assay type: organism-based; details: in vivo, 528 h, time 22 day
MHCC97H [30] = test: Induction of apoptosis in human MHCC97H cells assessed as late apoptotic cells at 10 nM incubated for 24 hrs by Annexin-V-FITC/PI staining based flow cytometry analysis (reference value: 4.24%); assay type: functional
MHCC97H [31] = test: Induction of apoptosis in human MHCC97H cells assessed as late apoptotic cells at 100 nM incubated for 24 hrs by Annexin-V-FITC/PI staining based flow cytometry analysis (reference value: 4.24%); assay type: functional
MHCC97H [32] = test: Induction of apoptosis in human MHCC97H cells assessed as necrotic cells at 100 nM incubated for 24 hrs by Annexin-V-FITC/PI staining based flow cytometry analysis (reference value: 1.77%); assay type: functional
[33] = Toxicity in BALB/c mouse xenografted with human MHCC97H cells assessed as reduction in body weight at 10 mg/kg, ip qd for 22 days and measured every 2 days; assay type: organism-based; details: in vivo, 528 h, time 22 day
MHCC97H [34] = test: Antitumor activity against human MHCC97H cells xenografted in BALB/c mouse assessed as tumor growth inhibition at 20 mg/kg, po qd for 22 days and measured every 2 days; assay type: functional; details: 528 h, time 22 day, read-out: TGI
[35] = Cmax in Sprague-Dawley rat at 1 mg/kg, iv by LC-MS/MS method; assay type: ADME, organism-based; details: in vivo
BaF3 [36] = test: Antiproliferative activity against mouse BaF3 cells harboring TPR-MET D1228N mutant fusion protein incubated for 72 hrs by CellTiter-Glo reagent based assay; assay type: functional, cell-based; details: BaF3, 72 h

With N#Cc1cccc(-c2ccc(=O)n(Cc3cccc(-c4ncc(OCC5CCN(CCCCCC(=O)NCC67CC8CC(CC(C8)C6)C7)CC5)cn4)c3)n2)c1 the Activity [1] was “Active”, the Tmax [2] was 4.98 min and the half-life [3] was 2.5 h. The inhibition (MHCC97H [4]) was “Active”, the Activity [5] was “Non-Toxic” and the Activity [6] was “Non-Toxic”. For the same compound, the Activity (MHCC97H [7]) was “Dose-Dependent Effect”, the Activity (MHCC97H [8]) was 74.6% and the inhibition (MHCC97H [9]) was “Active”. The Activity [10] was “Tde”, the Activity [11] was “Non-Toxic” and the Activity [12] was “inactive”. For the same compound, the Activity (Mus musculus [13]) was “Active”, the Activity (MHCC97H [14]) was 0.74% and the Activity [15] was “Non-Toxic”. The AUC(0-inf) [16] was 74.5 ng·h/mL, the Activity [17] was “Active” and the Activity [18] was “Dose-Dependent Effect”. The Cmax [19] was 16.3 ng/mL, the Activity [20] was “Dose-Dependent Effect” and the Activity (MHCC97H [21]) was 19.7%. The IC50 (BaF3 [22]) was 378 nM, the Activity (MHCC97H [23]) was 16% and the Activity (Mus musculus [24]) was “Active”. For the same compound, the DC50 [25] was 226 nM, the Activity ([25]; dose 63-100 nM) was “Dose-Dependent Effect” and the viability at 0.01 µM (MHCC97H [26]) was 72.7%. For the same compound, the Activity (Mus musculus [27]) was “Active”, the Activity [28] was “Non-Toxic” and the Activity [29] was “Non-Toxic”. The Activity (MHCC97H [30]) was 6.18%, the Activity (MHCC97H [31]) was 6.06% and the Activity (MHCC97H [32]) was 1.35%. For the same compound, the Activity [33] was “Non-Toxic”, the inhibition in vivo at 20 mg/kg (MHCC97H [34]) was 52.5% and the Cmax [35] was 1630 ng/mL. For the same compound, the IC50 (BaF3 [36]) was 463 nM.
